Columns and labels:
SDF-1 (Cxcl12) mRNA = experiment: SDF-1 mRNA expression in lung and liver of mice after CLP (RT-PCR); type: in vivo; details: 50 mg/kg
Experimental: (§1) Specifically, donor transgenic GFP (C57BL/6) mice are given 5-FU (150 mg/kg) to kill mature cells. Bone marrow is harvested. C57BL/6 congenic recipient mice are exposed to lethal doses of whole-body radiation (10Gy Cesium-137 at 1.0 Gy/min) and then undergo bone marrow transplant. Engraftment of GFP-BMSC is confirmed after five weeks in select sacrificed mice. Surviving mice are GFP-BMSC chimeras available for investigation. These GFP-BMSC mice then undergo CLP. Specifically, the mice are anesthetized and undergo laparotomy. The sham group undergo laparotomy only. The non-sham group has the cecum ligated and punctured (size and number of punctures may vary depending on the desired severity of injury). Mice are sacrificed at six, twelve and 24 hours. […] Serum is analyzed for levels of cytokines (TNF-α, IL-1, IL-2, IL-4, IL-6, IL-10, and IFN-γ) and chemokines (SDF-1 and SCF). […]
(§2) Additionally, four groups of 20 mice: sham group underwent celiotomy but not CLP; control group underwent CLP and administration of PBS; simultaneous treatment group (STG) had administration of 50 mg/kg MADG PO. […] Serum and tissue levels of pro- and anti-inflammatory cytokines were measured. Serum levels of chemokines stromal cell-derived factor (SDF-1) and stem cell factor (SCF) were measured to ascertain if effects of MADG involve stimulation of bone marrow stromal and stem cells. […]

SCF (Kit) mRNA = experiment: SCF mRNA expression in lung and liver of mice after CLP (RT-PCR); type: in vivo; details: 50 mg/kg
Experimental: as §1, §2

CCCCC/C=C\C/C=C\CCCCCCCC(=O)OC(COC(C)=O)COC(=O)CCCCCCCCCCCCCCC (racemic) [EC-18, 1-palmitoyl-2-linoleoyl-3-acetyl-rac-glycerol]
increased early expression: Cxcl2 (SDF-1) mRNA expression in the liver (SDF-1 (Cxcl12) mRNA; liver, compared to controls (FIG. 5A)) | Cxcl2 (SDF-1) mRNA expression in the lung (SDF-1 (Cxcl12) mRNA; lung, compared to controls (FIG. 4A)) | kit (SCF) mRNA expression in the liver (SCF (Kit) mRNA; liver, compared to controls (FIG. 5B)) | kit (SCF) mRNA expression in the lung (SCF (Kit) mRNA; lung, compared to controls (FIG. 4B))
